Data reported in patent US20250320213A1, “Nitrogen-Containing Heterocyclic Compounds” (Pfizer Inc., priority 2024, published 2025).

Legend:
[1] = target: T1, STAT6 (Homo sapiens, UniProt P42226); assay: STAT6 Reporter Luciferase Assay (IL-13 stimulated HaCaT keratinocyte NanoLuc reporter cells); assay type: cell-based; details: IL-13 stimulated HaCaT STAT6 NanoLuc reporter cells; read-out: Reporter EC50
T1 construct: stably transfected HaCaT keratinocyte cell line, which expresses NanoLuc luciferase reporter gene under the transcriptional control of the STAT6 responsive promoter; endogenous in cells; host or cells: HaCaT keratinocyte reporter cell line (stably transfected with a NanoLuc reporter)
T1 sequence (P42226 1-847): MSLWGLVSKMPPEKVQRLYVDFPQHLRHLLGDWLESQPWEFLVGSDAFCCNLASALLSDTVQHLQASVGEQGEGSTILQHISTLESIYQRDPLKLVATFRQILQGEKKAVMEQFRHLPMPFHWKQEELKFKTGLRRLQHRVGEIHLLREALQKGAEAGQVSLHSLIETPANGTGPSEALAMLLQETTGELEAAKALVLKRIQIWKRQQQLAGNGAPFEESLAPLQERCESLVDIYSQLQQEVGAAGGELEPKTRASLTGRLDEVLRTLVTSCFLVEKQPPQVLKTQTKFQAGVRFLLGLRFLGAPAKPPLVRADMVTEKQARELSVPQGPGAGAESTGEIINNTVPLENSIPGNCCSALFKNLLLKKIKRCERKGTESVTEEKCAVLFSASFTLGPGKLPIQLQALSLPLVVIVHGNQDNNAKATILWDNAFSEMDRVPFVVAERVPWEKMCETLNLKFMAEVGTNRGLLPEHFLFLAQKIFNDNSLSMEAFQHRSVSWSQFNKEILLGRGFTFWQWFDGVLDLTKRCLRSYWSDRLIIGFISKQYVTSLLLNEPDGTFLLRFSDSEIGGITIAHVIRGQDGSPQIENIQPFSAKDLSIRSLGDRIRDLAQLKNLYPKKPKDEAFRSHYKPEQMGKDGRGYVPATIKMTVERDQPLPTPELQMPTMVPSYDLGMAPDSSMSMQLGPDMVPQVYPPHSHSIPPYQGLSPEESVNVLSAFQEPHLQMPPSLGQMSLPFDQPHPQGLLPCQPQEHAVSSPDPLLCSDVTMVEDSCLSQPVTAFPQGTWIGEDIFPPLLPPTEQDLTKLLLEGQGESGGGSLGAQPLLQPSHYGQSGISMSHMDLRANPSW
Method in brief: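 IL-13 (0.12 nM, 4 h) stimulated STAT6 reporter activity in HaCaT cells after a 2 h compound pre-incubation; NanoLuc signal was measured.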

[2] = system: CCL17 secretion in peripheral human whole blood; assay: Human Whole Blood (HWB) CCL17 TR-FRET Assay (IL-13 stimulated CCL17 secretion); assay type: cell-based; details: human whole blood, IL-13 stimulated
Method in brief: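 TR-FRET sandwich immunoassay (665/615 nm ratio) read CCL17 in serum from heparinized whole blood after 16 h RT detection. Blood was exposed to compound for 2 h at 37 °C, then to 10 ng/mL IL-13 (final) for 48 h. IC50 from 11-point, 3-fold titrations in duplicate.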

EC50 [1] [nM] | IC50 ([2]; 48 hours) [nM] | IC50 ([2]; Homo sapiens, 48 h) [nM] | Structure (SMILES)
32 | 126 | – | CN(C)C(=O)Nc1ccc(CNC(=O)c2nn(C3CCOC3)c3c2CN(c2ccc(C(=O)N(C)C)cn2)CC3)cc1 (single isomer, unassigned) [Example 191, rel-(R or S)-5-(5-(dimethylcarbamoyl)pyridin-2-yl)-N-(4-(3,3-dimethylureido)benzyl)-1-(tetrahydrofuran-3-yl)-4,5,6,7-tetrahydro-1H-pyrazolo[4,3-c]pyridine-3-carboxamide]
1 | 16 | – | CC1CN(c2ccc(-c3nccn3C)cn2)Cc2c(C(=O)NCc3ccc(NC(=O)N(C)C)cc3)nn(C)c21 (single isomer, unassigned) [Example 203, rel-(R or S)-N-(4-(3,3-dimethylureido)benzyl)-1,7-dimethyl-5-(5-(1-methyl-1H-imidazol-2-yl)pyridin-2-yl)-4,5,6,7-tetrahydro-1H-pyrazolo[4,3-c]pyridine-3-carboxamide]
16 | 246 | – | CC1CN(c2ccc(-c3nccn3C)cn2)Cc2c(C(=O)NCc3ccc(NC(=O)N(C)C)cc3)nn(C)c21 (single isomer, unassigned) [Example 204, rel-(R or S)-N-(4-(3,3-dimethylureido)benzyl)-1,7-dimethyl-5-(5-(1-methyl-1H-imidazol-2-yl)pyridin-2-yl)-4,5,6,7-tetrahydro-1H-pyrazolo[4,3-c]pyridine-3-carboxamide]
14 | 277 | – | CCn1nc(C(=O)NCc2ccc(NC(=O)N(C)C)cc2)c2c1[C@H]1CC[C@H]1N(c1ccc(C(=O)N(C)C)cn1)C2 (single isomer, unassigned) [Example 230]
2 | 23 | – | CCn1nc(C(=O)NCc2ccc(NC(=O)N(C)C)cc2)c2c1[C@H]1CC[C@H]1N(c1ccc(C(=O)N(C)C)cn1)C2 (single isomer, unassigned) [Example 231]
2 | 5 | – | CCc1nc(C(=O)NCc2ccc(NC(=O)N(C)C)cc2)c2n1C(C)CN(c1ccc(C(=O)N(C)C)cn1)C2 (single isomer, unassigned) [Example 232, rel-(R or S)-7-(5-(dimethylcarbamoyl)pyridin-2-yl)-N-(4-(3,3-dimethylureido)benzyl)-3-ethyl-5-methyl-5,6,7,8-tetrahydroimidazo[1,5-a]pyrazine-1-carboxamide]
42 | 78 | – | CCc1nc(C(=O)NCc2ccc(NC(=O)N(C)C)cc2)c2n1C(C)CN(c1ccc(C(=O)N(C)C)cn1)C2 (single isomer, unassigned) [Example 233, rel-(R or S)-7-(5-(dimethylcarbamoyl)pyridin-2-yl)-N-(4-(3,3-dimethylureido)benzyl)-3-ethyl-5-methyl-5,6,7,8-tetrahydroimidazo[1,5-a]pyrazine-1-carboxamide]
20 | – | 80 | CCC(C)n1nc(C(=O)NCc2ccc(NC(=O)N(C)C)cc2)c2c1CCN(c1ccc(C(=O)N(C)C)cn1)C2 (single isomer, unassigned) [Example 234, rel-(R or S)-1-(sec-butyl)-5-(5-(dimethylcarbamoyl)pyridin-2-yl)-N-(4-(3,3-dimethylureido)benzyl)-4,5,6,7-tetrahydro-1H-pyrazolo[4,3-c]pyridine-3-carboxamide]
15 | 85 | – | CCC(C)n1nc(C(=O)NCc2ccc(NC(=O)N(C)C)cc2)c2c1CCN(c1ccc(C(=O)N(C)C)cn1)C2 (single isomer, unassigned) [Example 235, rel-(R or S)-1-(sec-butyl)-5-(5-(dimethylcarbamoyl)pyridin-2-yl)-N-(4-(3,3-dimethylureido)benzyl)-4,5,6,7-tetrahydro-1H-pyrazolo[4,3-c]pyridine-3-carboxamide]
7 | – | 83 | CC(C1CC1)n1nc(C(=O)NCc2ccc(NC(=O)N(C)C)cc2)c2c1CCN(c1ccc(C(=O)N(C)C)cn1)C2 (single isomer, unassigned) [Example 237, rel-(R or S)-1-(1-cyclopropylethyl)-5-(5-(dimethylcarbamoyl)pyridin-2-yl)-N-(4-(3,3-dimethylureido)benzyl)-4,5,6,7-tetrahydro-1H-pyrazolo[4,3-c]pyridine-3-carboxamide]
2 | 28 | – | CCn1nc(C(=O)NCc2ccc(NC(=O)N(C)C)cc2)c2c1CC(C(F)(F)F)N(c1ccc(C(=O)N(C)C)cn1)C2 (single isomer, unassigned) [Example 250, rel-(R or S)-5-(5-(dimethylcarbamoyl)pyridin-2-yl)-N-(4-(3,3-dimethylureido)benzyl)-1-ethyl-6-(trifluoromethyl)-4,5,6,7-tetrahydro-1H-pyrazolo[4,3-c]pyridine-3-carboxamide]
10 | 80 | – | CCn1nc(C(=O)NCc2ccc(NC(=O)N(C)C)cc2)c2c1CC(C(F)(F)F)N(c1ccc(C(=O)N(C)C)cn1)C2 (single isomer, unassigned) [Example 251, rel-(R or S)-5-(5-(dimethylcarbamoyl)pyridin-2-yl)-N-(4-(3,3-dimethylureido)benzyl)-1-ethyl-6-(trifluoromethyl)-4,5,6,7-tetrahydro-1H-pyrazolo[4,3-c]pyridine-3-carboxamide]
2 | – | 8 | C[C@H]1CN(c2ccc(C(=O)N(C)C)cn2)Cc2c(C(=O)NCc3ccc(NC(=O)N(C)C)cc3)nn(C3CCOCC3)c21 (single isomer, unassigned) [Example 258]
50 | 984 | – | CCC1Cc2c(c(C(=O)NCc3ccc(NC(=O)N(C)C)cc3)nn2C(C)C)CN1c1ccc(C(=O)N(C)C)cn1 (single isomer, unassigned) [Example 267, rel-(R or S)-5-(5-(dimethylcarbamoyl)pyridin-2-yl)-N-(4-(3,3-dimethylureido)benzyl)-6-ethyl-1-isopropyl-4,5,6,7-tetrahydro-1H-pyrazolo[4,3-c]pyridine-3-carboxamide]
3 | 21 | – | CCC1Cc2c(c(C(=O)NCc3ccc(NC(=O)N(C)C)cc3)nn2C(C)C)CN1c1ccc(C(=O)N(C)C)cn1 (single isomer, unassigned) [Example 268, rel-(R or S)-5-(5-(dimethylcarbamoyl)pyridin-2-yl)-N-(4-(3,3-dimethylureido)benzyl)-6-ethyl-1-isopropyl-4,5,6,7-tetrahydro-1H-pyrazolo[4,3-c]pyridine-3-carboxamide]
87 | 834 | – | CCC1Cc2c(c(C(=O)NCc3ccc(NC(=O)N(C)C)cc3)nn2C)CN1c1ccc(C(=O)N(C)C)cn1 (single isomer, unassigned) [Example 269, rel-(R or S)-5-(5-(dimethylcarbamoyl)pyridin-2-yl)-N-(4-(3,3-dimethylureido)benzyl)-6-ethyl-1-methyl-4,5,6,7-tetrahydro-1H-pyrazolo[4,3-c]pyridine-3-carboxamide]
7 | 33 | – | CCC1Cc2c(c(C(=O)NCc3ccc(NC(=O)N(C)C)cc3)nn2C)CN1c1ccc(C(=O)N(C)C)cn1 (single isomer, unassigned) [Example 270, rel-(R or S)-5-(5-(dimethylcarbamoyl)pyridin-2-yl)-N-(4-(3,3-dimethylureido)benzyl)-6-ethyl-1-methyl-4,5,6,7-tetrahydro-1H-pyrazolo[4,3-c]pyridine-3-carboxamide]
